According to US4576946A, “Derivatives of 4-methyl 6-phenyl pyridazine active on the central nervous system” (Sanofi, priority 1981, dated 1986):
Structures can show the parent of a compound that is named as a salt.

Columns and labels:
[1] = Acute toxicity (LD50, 24 hours, intraperitoneal); settings: mouse, in vivo, ip
Method: (§1) The products to be studied were administered by the intraperitoneal route in increasing doses to batches of 10 mice. The mortality provoked by the products studied was noted during the 24 hours following administration of the product.
From the results obtained, the lethal dose 50, i.e. the dose provoking the death of 50% of the animals studied, is determined for each of the products studied.

mice = assay: Convulsivant threshold dose (same experiments as acute toxicity); assay type: in vivo, mouse
Method: as §1
During the same experiments, the convulsivant threshold dose of the product is also noted, i.e. the minimum dose for which a convulsivant activity begins to show.

[2] = tested on: ptosis induced by reserpine; assay: Antagonism of the ptosis induced by reserpine; assay type: in vivo, female mouse CDI (Charles River); settings: reserpine 2 mg/kg i.v., 1 hour; for ED50: Mus musculus, ip
Method: This test, described by GOURET (Journal de Pharmacologie (Paris), 1973, 4(1), 105-128), was carried out on the female mouse CDI (Charles River) weighing 20±1 g. The reserpine provokes a ptosis one hour after intravenous administration thereof; certain antidepressants oppose this ptosis.
The substances to be studied were administered by the i.p. route. The reserpine is administered simultaneously by the intravenous route at the dose of 2 mg/kg. One hour after administration of the reserpine, the number of animals not presenting ptosis is noted.
This test was carried out on batches of 10 mice, the results are expressed in percentage of animals not presenting ptosis and are the average of at least two experiments.

[3] = tested on: striatal dopaminergic receptors; assay: Dopaminomimetic activity (rotations after unilateral lesion of nigrostriatal dopaminergic neurones); assay type: in vivo, mouse; settings: 5.3 μmoles/kg i.p.
Excerpt: The dopaminomimetic activity of the products of the invention was studied on the striatal dopaminergic receptors of the mouse according to the technique described by P. PROTAIS and J. COSTENTIN, Journal de Pharmacologie (Paris), 7, 251-255 (1976).
The unilateral lesion of the nigrostriatal dopaminergic neurones induces a hypersensitivity of the receptors of the dopamine at the level of the striatum.
After administration of the products to be studied by the intraperitoneal route, the number of rotations made by the animal is counted for a period of 2 minutes.
The results are expressed in the form of percentage of the variations with respect to the controls not having received the product to be studied.

[4] = tested on: despair reaction (duration of immobilisation); assay: Despair reaction ("Behavioral Despair"); assay type: in vivo, female mouse, CDI (Charles River); settings: 10 mg/kg i.p., 1 hour before test; immobile time between 2nd and 6th minute
Method: This test was carried out on the female mouse, CDI (Charles River), weighing 18 to 23 g, according to the method described by Porsolt (Archives Internationales de Pharmacodynamie, 1977, 229, 327-336). The principle of this test is as follows: when a mouse is placed in a narrow recipient filled with water, it struggles, then, after 2 to 4 mins., it becomes still and floats on its stomach, its back rounded, its rear paws drawn up under its body and it makes only a few movements necessary for holding its head out of the water. This is the so-called despair reaction. Certain psychotherapeutic agents, particularly antidepressants, extend the time during which the mouse struggles. The products to be studied were administered by the i.p. route 1 hour before the test. For the test, the animals are placed in a narrow recipient (10×10×10 cm) filled with water up to a height of 6 cm, the temperature of the water being 24° C.±2° C. The animals are left 6 minutes in the water and the time when the animal remains immobile between the 2nd and the 6th minute is measured--the shorter this time, the more the substance is active. Each substance was studied on a batch of 10 mice. The results are the average of at least two experiments.

[5] = cited from earlier work
[6] = mice, mortality during 24 hours

Row | Compound | LD50 at 24 h [1] [mg/kg] | Convulsivant threshold dose (mice; mouse, in vivo, ip) [mg/kg] | ED50 [2] [mg/kg] | Average number of ipsilateral rotations in 2 minutes, % with respect to controls [3] [%] | LD50 at 24 h [1, 6] [mg/kg] | further results
1 | Cc1cc(-c2ccccc2)nnc1NCCN1CCOCC1=O [CM 30488, 3-[2-(3-OXO 4-MORPHOLINYL)ETHYLAMINO]4-METHYL 6-PHENYL PYRIDAZINE, HYDROCHLORIDE] | > 300 | 300 | 20 | -90 |  | 
2 | Cc1cc(-c2ccccc2O)nnc1NCCN1CCOCC1 [SR 95070, 3-(2-morpholinoethylamino)4-methyl 6-(2-hydroxyphenyl)pyridazine] |  | 200 |  | -89 | > 200 | 
3 | Cc1cc(-c2ccccc2)nnc1N [CM 30465, 3-AMINO 4-METHYL 6-PHENYL PYRIDAZINE(HYDROCHLORIDE)] | 226 | 200 | 8.6 | -89 |  | "Behavioral Despair" % of reduction of the duration of immobilisation [4]: -24%
4 | Cc1cc(-c2ccccc2)nnc1NCCN1CCOC(=O)C1 [CM 30489, 3-[2-(2-OXO 4-MORPHOLINYL)ETHYLAMINO]4-METHYL 6-PHENYL PYRIDAZINE, DIHYDROCHLORIDE] |  |  |  | -97 |  | 
5 | COc1ccc(-c2cc(C)c(NCCN3CCOCC3)nn2)cc1 [CM 30073, reference compound] |  |  |  | 0 | 19 | Convulsivant threshold dose (mice; i.p., mice, minimum dose for which a convulsivant activity begins to show): 5 mg/kg; Antagonism of the ptosis induced by reserpine (percentage of animals not presenting ptosis) ([2]; 1 mg/kg i.p.): 30%; Antagonism of the ptosis induced by reserpine (percentage of animals not presenting ptosis) ([2]; 5 mg/kg i.p.): 60%
6 | Br.Br.Cc1cc(-c2ccc(O)cc2)nnc1NCCN1CCOCC1 [CM 30366, 3-(2-MORPHOLINO ETHYLAMINO)4-METHYL 6-(4-HYDROXY PHENYL)PYRIDAZINE DIHYDROBROMIDE] | > 200 | 200 | 12 | -111 |  | "Behavioral Despair" % of reduction of the duration of immobilisation [4]: -31%
7 | Cc1cc(-c2ccccc2)nnc1NCCNCCO [CM 30311, 3-[2-(2-HYDROXY ETHYLAMINO)ETHYLAMINO]4-METHYL 6-PHENYL PYRIDAZINE, DIHYDROCHLORIDE] | > 200 | 200 |  | -146 |  | 
8 | CCN(CCO)CCNc1nnc(-c2ccccc2)cc1C [SR 95084, 3-{2-[N-ethyl(2-hydroxyethylamino)]ethylamino}4-methyl 6-phenyl pyridazine] |  | 200 |  |  | 100 to 200 | 
9 | Cc1cc(-c2ccccc2)nnc1NCCN1CCOCC1 [Minaprine, reference compound] |  | 35 | 5 | -91 |  | type of psychotherapeutic action ([5]; in vivo): "disinhibitory" activity; dose above which convulsivant ([5]; per os): higher than 100 mg/kg; "Behavioral Despair" % of reduction of the duration of immobilisation [4]: -35%
10 | Cc1cc(-c2cccc(O)c2)nnc1NCCN1CCOCC1 [SR 95082, 3-(2-morpholinoethylamino)4-methyl 6-(3-hydroxyphenyl)pyridazine] |  | > 200 |  |  | > 200 | 
11 | Cc1cc(-c2ccc(O)cc2)nnc1N [SR 95087, 3-amino 4-methyl 6-(4-hydroxyphenyl)pyridazine] |  | > 200 |  |  | > 200 | 
12 | Cc1cc(-c2ccccc2)nnc1NCC[N+]1([O-])CCOCC1 [SR 30490, N-OXIDE of 3-(2-MORPHOLINO ETHYLAMINO 4-METHYL 6-PHENYL PYRIDAZINE] | > 200 | 300 | ~50 |  |  | 
